Assays:
[1] = molecular target: T1, Eukaryotic translation initiation factor 2-alpha kinase 3 (Homo sapiens, UniProt Q9NZJ5); test: Inhibition of human His-tagged PERK expressed in Escherichia coli assessed as eIF2alpha phosphorylation by TR-FRET assay
T1 sequence (Q9NZJ5 whole entry): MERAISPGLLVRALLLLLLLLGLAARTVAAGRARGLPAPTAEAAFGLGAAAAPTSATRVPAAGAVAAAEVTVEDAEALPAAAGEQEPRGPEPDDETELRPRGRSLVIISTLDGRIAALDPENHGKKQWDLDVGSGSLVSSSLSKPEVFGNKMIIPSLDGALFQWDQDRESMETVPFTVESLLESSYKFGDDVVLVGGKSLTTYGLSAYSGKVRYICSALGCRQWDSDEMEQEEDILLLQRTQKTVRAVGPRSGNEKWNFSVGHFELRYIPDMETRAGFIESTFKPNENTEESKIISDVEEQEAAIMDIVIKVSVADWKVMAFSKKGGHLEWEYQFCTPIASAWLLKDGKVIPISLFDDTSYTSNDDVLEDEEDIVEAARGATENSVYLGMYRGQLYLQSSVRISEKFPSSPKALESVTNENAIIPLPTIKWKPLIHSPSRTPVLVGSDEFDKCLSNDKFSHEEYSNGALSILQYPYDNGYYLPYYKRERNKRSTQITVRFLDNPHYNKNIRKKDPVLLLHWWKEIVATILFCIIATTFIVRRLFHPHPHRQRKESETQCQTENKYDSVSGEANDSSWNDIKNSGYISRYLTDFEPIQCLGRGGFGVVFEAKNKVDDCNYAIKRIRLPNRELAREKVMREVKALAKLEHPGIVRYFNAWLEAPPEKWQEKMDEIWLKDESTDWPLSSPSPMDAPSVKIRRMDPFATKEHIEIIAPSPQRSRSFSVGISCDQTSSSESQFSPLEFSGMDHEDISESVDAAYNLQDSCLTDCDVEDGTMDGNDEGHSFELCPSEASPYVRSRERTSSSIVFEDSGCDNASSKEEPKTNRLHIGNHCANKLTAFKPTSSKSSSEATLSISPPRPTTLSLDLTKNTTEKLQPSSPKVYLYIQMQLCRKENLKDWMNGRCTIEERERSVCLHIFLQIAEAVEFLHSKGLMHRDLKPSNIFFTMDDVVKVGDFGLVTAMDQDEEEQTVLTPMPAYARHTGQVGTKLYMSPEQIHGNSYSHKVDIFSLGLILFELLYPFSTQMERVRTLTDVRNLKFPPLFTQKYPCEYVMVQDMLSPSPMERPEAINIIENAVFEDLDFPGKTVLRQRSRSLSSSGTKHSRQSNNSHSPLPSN

[2] = Apparent permeability of the compound across apical to basolateral side in human Caco-2 cells; assay type: ADME, cell-based; conditions: read-out: permeability
[3] = Plasma protein binding in human; assay type: ADME, cell-free; conditions: read-out: PPB (converted)
[4] = Plasma protein binding in rat; assay type: ADME, cell-free; conditions: read-out: PPB (converted)
[5] = Half life in rat hepatocytes; assay type: ADME, cell-based, Hepatocyte
[6] = molecular target: Tyrosine-protein kinase receptor UFO (Homo sapiens) (UniProt P30530); test: Inhibition of wild-type human partial length AXL (R497 to Y821 residues) expressed in bacterial expression system assessed as residual activity at 10 uM by Kinomescan method relative to control
Chain of Tyrosine-protein kinase receptor UFO (Homo sapiens) (P30530 whole entry, the tested form may be a part): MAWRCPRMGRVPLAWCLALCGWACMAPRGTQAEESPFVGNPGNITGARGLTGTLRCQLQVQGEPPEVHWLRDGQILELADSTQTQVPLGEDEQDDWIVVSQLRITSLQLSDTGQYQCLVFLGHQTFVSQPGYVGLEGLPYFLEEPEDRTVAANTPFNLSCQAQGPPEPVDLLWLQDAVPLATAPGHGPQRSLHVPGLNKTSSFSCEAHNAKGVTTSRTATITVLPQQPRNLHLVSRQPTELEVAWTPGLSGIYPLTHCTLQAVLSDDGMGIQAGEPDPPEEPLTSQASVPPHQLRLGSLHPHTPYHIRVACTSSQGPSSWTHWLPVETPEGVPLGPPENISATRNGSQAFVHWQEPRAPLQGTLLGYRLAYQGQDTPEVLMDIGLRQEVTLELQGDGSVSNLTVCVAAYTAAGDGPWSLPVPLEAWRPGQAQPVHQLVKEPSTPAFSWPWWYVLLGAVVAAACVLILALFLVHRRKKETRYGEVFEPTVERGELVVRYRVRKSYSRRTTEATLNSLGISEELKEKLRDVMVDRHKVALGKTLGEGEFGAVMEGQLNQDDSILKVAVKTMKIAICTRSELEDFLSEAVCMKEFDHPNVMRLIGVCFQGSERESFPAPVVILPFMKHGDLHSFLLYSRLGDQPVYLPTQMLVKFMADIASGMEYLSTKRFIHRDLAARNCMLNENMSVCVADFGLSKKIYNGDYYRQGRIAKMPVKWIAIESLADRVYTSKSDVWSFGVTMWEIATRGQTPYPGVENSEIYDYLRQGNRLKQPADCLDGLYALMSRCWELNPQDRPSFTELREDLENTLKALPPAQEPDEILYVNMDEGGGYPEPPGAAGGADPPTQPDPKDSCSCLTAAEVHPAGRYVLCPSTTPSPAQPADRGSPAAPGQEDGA

[7] = molecular target: Macrophage colony-stimulating factor 1 receptor (Homo sapiens) (UniProt P07333); test: Inhibition of wild-type human partial length CSF1R (I564 to S939 residues) expressed in bacterial expression system assessed as residual activity at 10 uM by Kinomescan method relative to control
Chain of Macrophage colony-stimulating factor 1 receptor (Homo sapiens) (P07333 whole entry, the tested form may be a part): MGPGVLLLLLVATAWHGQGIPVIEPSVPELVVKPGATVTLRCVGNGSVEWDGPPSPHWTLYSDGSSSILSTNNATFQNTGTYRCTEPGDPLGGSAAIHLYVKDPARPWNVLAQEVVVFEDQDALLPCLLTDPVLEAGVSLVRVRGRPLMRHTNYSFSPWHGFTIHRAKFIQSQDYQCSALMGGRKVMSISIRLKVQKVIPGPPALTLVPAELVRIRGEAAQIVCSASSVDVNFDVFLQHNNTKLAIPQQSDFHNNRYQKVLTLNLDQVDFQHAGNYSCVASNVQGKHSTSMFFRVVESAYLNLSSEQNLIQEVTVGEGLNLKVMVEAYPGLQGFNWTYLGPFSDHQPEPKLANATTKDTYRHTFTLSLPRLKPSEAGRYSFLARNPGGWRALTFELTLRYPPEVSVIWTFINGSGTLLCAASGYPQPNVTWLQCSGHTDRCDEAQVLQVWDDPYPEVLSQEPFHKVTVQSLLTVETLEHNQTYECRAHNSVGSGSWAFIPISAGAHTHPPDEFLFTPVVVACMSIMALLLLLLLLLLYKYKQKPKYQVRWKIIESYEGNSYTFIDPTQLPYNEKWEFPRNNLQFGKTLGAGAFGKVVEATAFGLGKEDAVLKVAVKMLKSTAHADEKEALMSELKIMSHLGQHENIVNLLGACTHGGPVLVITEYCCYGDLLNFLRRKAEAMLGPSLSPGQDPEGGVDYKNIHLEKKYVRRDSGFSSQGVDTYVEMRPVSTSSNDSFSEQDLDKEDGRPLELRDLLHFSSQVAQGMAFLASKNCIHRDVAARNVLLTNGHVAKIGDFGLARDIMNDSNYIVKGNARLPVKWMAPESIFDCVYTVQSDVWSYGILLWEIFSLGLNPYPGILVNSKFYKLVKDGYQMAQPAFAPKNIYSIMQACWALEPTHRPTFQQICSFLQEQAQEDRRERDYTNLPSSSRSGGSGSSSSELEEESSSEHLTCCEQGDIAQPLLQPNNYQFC

[8] = molecular target: Mast/stem cell growth factor receptor Kit (Homo sapiens) (UniProt P10721); test: Inhibition of wild-type human partial length KIT (I571 to D952 residues) expressed in bacterial expression system assessed as residual activity at 10 uM by Kinomescan method relative to control
Chain of Mast/stem cell growth factor receptor Kit (Homo sapiens) (P10721 whole entry, the tested form may be a part): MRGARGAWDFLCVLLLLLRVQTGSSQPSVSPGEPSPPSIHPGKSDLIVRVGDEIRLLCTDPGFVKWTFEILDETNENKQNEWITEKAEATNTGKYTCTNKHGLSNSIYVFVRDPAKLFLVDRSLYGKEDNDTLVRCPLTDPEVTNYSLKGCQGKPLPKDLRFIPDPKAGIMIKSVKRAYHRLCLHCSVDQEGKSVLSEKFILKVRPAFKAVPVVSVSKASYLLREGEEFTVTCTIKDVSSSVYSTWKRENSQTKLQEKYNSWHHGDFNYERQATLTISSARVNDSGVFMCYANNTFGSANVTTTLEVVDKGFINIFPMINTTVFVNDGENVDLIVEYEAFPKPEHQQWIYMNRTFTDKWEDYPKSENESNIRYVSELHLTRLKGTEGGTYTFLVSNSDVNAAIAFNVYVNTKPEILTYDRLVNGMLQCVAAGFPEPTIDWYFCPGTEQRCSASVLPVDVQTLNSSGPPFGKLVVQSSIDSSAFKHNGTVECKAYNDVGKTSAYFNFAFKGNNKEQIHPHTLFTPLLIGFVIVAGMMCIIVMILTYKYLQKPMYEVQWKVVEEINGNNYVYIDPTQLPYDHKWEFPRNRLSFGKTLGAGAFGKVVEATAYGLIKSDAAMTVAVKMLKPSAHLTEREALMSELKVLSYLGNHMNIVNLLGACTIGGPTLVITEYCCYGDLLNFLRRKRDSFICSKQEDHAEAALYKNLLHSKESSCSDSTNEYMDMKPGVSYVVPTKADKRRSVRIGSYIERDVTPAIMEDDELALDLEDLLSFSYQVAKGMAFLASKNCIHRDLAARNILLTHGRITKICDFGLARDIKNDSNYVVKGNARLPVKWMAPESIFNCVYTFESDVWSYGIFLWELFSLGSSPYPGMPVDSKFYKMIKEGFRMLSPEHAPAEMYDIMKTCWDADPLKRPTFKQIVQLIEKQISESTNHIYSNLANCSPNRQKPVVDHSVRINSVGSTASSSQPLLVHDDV

[9] = molecular target: Angiopoietin-1 receptor (Homo sapiens) (UniProt Q02763); test: Inhibition of wild-type human partial length TIE2 (N804 to T1112 residues) expressed in bacterial expression system assessed as residual activity at 10 uM by Kinomescan method relative to control
Chain of Angiopoietin-1 receptor (Homo sapiens) (Q02763 whole entry, the tested form may be a part): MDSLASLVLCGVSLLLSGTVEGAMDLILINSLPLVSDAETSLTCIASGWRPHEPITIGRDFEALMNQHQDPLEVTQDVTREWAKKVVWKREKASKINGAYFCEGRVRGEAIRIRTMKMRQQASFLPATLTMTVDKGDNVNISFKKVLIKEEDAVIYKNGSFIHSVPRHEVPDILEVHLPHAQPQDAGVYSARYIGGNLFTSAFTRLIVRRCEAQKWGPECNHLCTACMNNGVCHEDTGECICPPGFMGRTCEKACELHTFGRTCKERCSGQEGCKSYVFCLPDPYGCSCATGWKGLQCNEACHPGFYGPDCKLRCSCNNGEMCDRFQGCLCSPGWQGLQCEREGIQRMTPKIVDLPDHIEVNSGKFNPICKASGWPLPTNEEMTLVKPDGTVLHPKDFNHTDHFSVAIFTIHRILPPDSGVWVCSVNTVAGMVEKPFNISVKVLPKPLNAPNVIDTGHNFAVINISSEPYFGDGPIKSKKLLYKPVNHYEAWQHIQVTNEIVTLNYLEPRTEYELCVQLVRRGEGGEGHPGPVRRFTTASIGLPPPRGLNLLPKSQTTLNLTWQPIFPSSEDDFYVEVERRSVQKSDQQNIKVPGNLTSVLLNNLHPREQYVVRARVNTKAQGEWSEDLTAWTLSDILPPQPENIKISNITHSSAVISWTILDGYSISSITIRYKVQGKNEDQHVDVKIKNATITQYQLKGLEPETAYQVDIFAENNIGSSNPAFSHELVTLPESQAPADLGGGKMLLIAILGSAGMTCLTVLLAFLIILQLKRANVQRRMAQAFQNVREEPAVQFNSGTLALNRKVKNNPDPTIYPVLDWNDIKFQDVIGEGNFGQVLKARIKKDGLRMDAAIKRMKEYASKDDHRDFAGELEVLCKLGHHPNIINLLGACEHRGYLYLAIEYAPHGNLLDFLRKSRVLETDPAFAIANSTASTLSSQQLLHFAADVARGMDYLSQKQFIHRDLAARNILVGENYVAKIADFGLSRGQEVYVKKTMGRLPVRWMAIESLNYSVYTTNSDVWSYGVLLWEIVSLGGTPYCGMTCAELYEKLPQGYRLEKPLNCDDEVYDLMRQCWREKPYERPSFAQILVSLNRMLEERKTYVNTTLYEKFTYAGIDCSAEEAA

[10] = Oral bioavailability in mouse at 10 mg/kg; assay type: ADME, organism-based; conditions: in vivo

IC50 [1]: 2 nM
Papp A→B [2]: 220 nm/s
fraction unbound [3]: 0.003
fraction unbound [4]: 0.007
half-life [5]: 14 min
Activity [6]: 70%
Activity [7]: 74%
Activity [8]: 67%
Activity [9]: 85%
bioavailability [10]: 70%
SMILES: CCc1cc(NC(=O)[C@H](O)c2cc(F)cc(F)c2)ccc1-c1cnc(N)c(C(=O)NC(C)C)c1

Source: ChEMBL document CHEMBL4819104, “Discovery of 2-amino-3-amido-5-aryl-pyridines as highly potent, orally bioavailable, and efficacious PERK kinase inhibitors” (Bioorg Med Chem Lett, 2021)
